This passage reports IC50 results from patent publication US10351552B2, “Bicyclic antiparasitic compounds” (MediSynergies, LLC, priority 2017, dated 2019).

The test system of the assay is T. brucei brucei clone 427-221a (bloodstream forms). The experiment in a line: T. brucei brucei growth inhibition assay. The assay is classed as cell-based. To be noted: Trypanosoma brucei, 40 hours at 37° C., CellTiter-Glo ATP-bioluminescence. On the procedure:
The growth inhibition assay for T. brucei brucei was conducted as described previously by Z. B. Mackey, et al (Kenny K. H. Ang, Joseline Ratnam, Jiri Gut, Jennifer Legac, Elizabeth Hansell, Zachary B. Mackey, Katarzyna M. Skrzypczynska, Anjan Debnath, Juan C. Engel, Philip J. Rosenthal, James H. McKerrow, Michelle R. Arkin, Adam R. Renslo (2011) “Mining a Cathepsin Inhibitor Library for New Antiparasitic Drug Leads”, PLoS Neglected Tropical Diseases, 5(5):e1023). Bloodstream forms of the monomorphic T. brucei brucei clone 427-221a were grown in complete HMI-9 medium containing 10% FBS, 10% Serum Plus medium (Sigma Inc., St. Louis, Mo., USA), 50 U/mL penicillin and […] (Invitrogen) at 37° C. under a humidified atmosphere and 5% CO2. Inhibitor stocks were prepared in 100% DMSO and screened at […] for percent inhibition values or serially diluted from […] in 10% DMSO for IC50 determinations. […] of diluted parasites ([…]) in sterile Greiner 96-well flat white opaque culture plates such that the final DMSO concentration was 0.5%. The 0% inhibition control wells contained 0.5% DMSO while 100% inhibition control wells contained 50 mM thimerosal (Sigma). After compound addition, plates were incubated for 40 hours at 37° C. At the end of the incubation period, […] of CellTiter-Glo™ reagent (Promega Inc., Madison, Wis., USA) was added to each well and plates were placed on an orbital shaker at room temperature for 2 min to induce lysis. After an additional 10 min of incubation without shaking to stabilize the signal, the ATP-bioluminescence of each well was determined using an Analyst HT plate reader (Molecular Devices, Sunnyvale, Calif., USA). Raw values were converted to log 10 and percentage inhibition calculated relative to the controls. IC50 curve fittings were performed with Prism 4 software as above. Pentamidine was used as a comparator in the assay.
On the technique in general: ATP-based viability assays read luminescence as a measure of living cells.
Consider `CN(C)CCCC1(c2ccc(F)cc2)OCc2cc(-c3ccc4scnc4c3)ccc21` (stereo not shown) [Example 3, 3-[1-(4-fluorophenyl)-5-(1,3-benzothiazol-5-yl)-1,3-dihydro-2-benzofuran-1-yl]-N,N-dimethylpropan-1-amine], for which half-maximal inhibition (IC50) required 1200 nM.

`CN(C)CCCC1(c2ccc(F)cc2)OCc2cc(-c3cnc4ccccc4c3)ccc21` (stereo not shown) [Example 6, 3-[1-(4-fluorophenyl)]-[5-(quinolin-3-yl)-1,3-dihydro-2-benzofuran-1-yl]-N,N-dimethylpropan-1-amine]: the midpoint of inhibition, the IC50, lay at 3000 nM.

As for `CN(C)CCCC1(c2ccc(F)cc2)OCc2cc(-c3cncc4ccccc34)ccc21` (stereo not shown) [Example 7, 3-[1-(4-fluorophenyl)]-[5-(isoquinolin-4-yl)-1,3-dihydro-2-benzofuran-1-yl]-N,N-dimethylpropan-1-amine], the IC50 (usually the midpoint of a concentration-inhibition curve) was determined as 1000 nM.

As for `CN(C)CCCC1(c2ccc(F)cc2)OCc2cc(-c3cc4ccccc4s3)ccc21` (stereo not shown) [Example 4], half-maximal inhibition (IC50) was put at 510 nM.

With `Cc1ccc2oc(-c3ccc4c(c3)COC4(CCCN(C)C)c3ccc(F)cc3)nc2c1` (stereo not shown) [Example 8, 3-[1-(4-fluorophenyl)-5-(5-methyl-1,3-benzoxazol-2-yl)-1,3-dihydro-2-benzofuran-1-yl]-N,N-dimethylpropan-1-amine], the concentration for half-maximal inhibition (IC50) worked out at 110 nM.

On to `CN(C)CCCC1(c2ccc(F)cc2)OCc2cc(-c3cccc4[nH]ccc34)ccc21` (stereo not shown) [Example 1, 3-[1-(4-fluorophenyl)-5-(1H-indol-4-yl)-1,3-dihydro-2-benzofuran-1-yl]-N,N-dimethylpropan-1-amine], for which the IC50 is 1500 nM.

`CN(C)CCCC1(c2ccc(F)cc2)OCc2cc(-c3ccc4ocnc4c3)ccc21` (stereo not shown) [Example 2, 3-[1-(4-flurophenyl)-5-(1,3-benzoxazol-5-yl)-1,3-dihydro-2-benzofuran-1-yl]-N,N-dimethylpropan-1-amine] registered an IC50 of 410 nM.
